# Compound: NCC(=O)Nc1ccc(-n2nc(C(F)(F)F)cc2-c2ccc3c(ccc4ccccc43)c2)cc1 + N=C(N)NC(=N)NCCc1ccccc1 [Phenformin] (partner 250 µM)
# Experiment: relative viability (nuclei count vs DMSO), 5 days (fraction); higher = more cells survive
# Details: first compound 2 µM
# Procedure, shortened: (§1)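 After 5 days of treatment, lung cancer cells in 1536-well plates were fixed and stained in a single step (final 0.05% Triton X-100, 1% formaldehyde, 1 ug/ml Hoechst) and their nuclei counted on 4× images. Treatment had been applied by pin tool the day after seeding as one drug alone or as a fixed anchor-drug dose with five library-drug doses (not always all listed) in √10 steps. Relative viability is the nuclei count of treated wells divided by that of vehicle wells, and values are medians of duplicate plates.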
row,Cell Line,relative viability
1,HCC-44,0.284
2,A549,0.17
3,NCI-H522,0.651
4,LU99A,0.921
5,BEN,0.228
6,HARA,0.53
7,SW 900,0.661
8,HCC-78,0.714
9,NCI-H322M,0.811
10,LCLC-97TM1,0.442
11,NCI-H2009,0.525
12,A-427,0.352
13,NCI-H1395,0.475
14,NCI-H1793,0.422
15,NCI-H1944,0.207
16,NCI-H358,0.343

# Compound: NCC(=O)Nc1ccc(-n2nc(C(F)(F)F)cc2-c2ccc3c(ccc4ccccc43)c2)cc1 + CC(C)C[C@H](NC(=O)[C@H](Cc1ccccc1)NC(=O)c1cnccn1)B(O)O [Bortezomib] (partner 0.002 µM)
# Experiment: as above
# Details: first compound 0.02 µM
# Procedure, shortened: as §1
row,Cell Line,relative viability
1,NCI-H727,0.849
2,NCI-H1650,0.235
3,EBC-1,0.533
4,NCI-H1703,0.278
5,NCI-H1993,1.1
6,SW 1573,1.16
7,NCI-H838,0.81
8,LCLC-103H,1.03
9,NCI-H520,0.646
10,NCI-H2126,1.12
11,EMC-BAC-2,1.02
12,NCI-H2085,1.09
13,Calu-6,0.998
14,HCC-366,1.17
15,NCI-H1666,0.788
16,NCI-H596,1.27
17,NCI-H2087,0.818
18,H3255,0.87

row,Cell Line,relative viability
1,COR-L23,1.05
2,COR-L 105,0.73
3,IA-LM,0.775
4,LOU-NH91,0.485
5,ChaGo-K-1,0.979
6,NCI-H2405,0.924
7,HOP-62,0.828
8,HCC-44,0.968
9,LU99A,1.14
10,BEN,0.817
11,HARA,1.09
12,HCC-78,0.53
13,NCI-H322M,1.41
14,LCLC-97TM1,0.814
15,NCI-H2009,0.911
16,A-427,0.949
17,NCI-H1299,0.992

# Same assay, conditions: first compound 0.06325 µM
row,Cell Line,relative viability
1,NCI-H727,0.977
2,NCI-H1650,0.215
3,EBC-1,0.556
4,NCI-H1703,0.237
5,NCI-H1993,1.28
6,SW 1573,1.28
7,NCI-H838,0.788
8,LCLC-103H,1
9,NCI-H520,0.568
10,NCI-H2126,1.15
11,EMC-BAC-2,1.19
12,NCI-H2085,1.05
13,Calu-6,1.2
14,HCC-366,1.03
15,NCI-H1666,0.769
16,NCI-H596,1.1
17,NCI-H2087,0.743
18,H3255,1.12

row,Cell Line,relative viability
1,COR-L23,0.944
2,COR-L 105,0.917
3,IA-LM,0.721
4,LOU-NH91,0.523
5,ChaGo-K-1,1.02
6,NCI-H2405,1.04
7,HOP-62,0.859
8,HCC-44,0.872
9,LU99A,1.27
10,BEN,0.852
11,HARA,1.05
12,HCC-78,0.568
13,NCI-H322M,1.29
14,LCLC-97TM1,0.75
15,NCI-H2009,1.05
16,A-427,0.919
17,NCI-H1299,1.03

# Same assay, conditions: first compound 0.2 µM
row,Cell Line,relative viability
1,NCI-H727,0.724
2,NCI-H1650,0.188
3,EBC-1,0.738
4,NCI-H1703,0.307
5,NCI-H1993,1.08
6,SW 1573,1.05
7,NCI-H838,1.06
8,LCLC-103H,1.13
9,NCI-H520,1.05
10,NCI-H2126,1.15
11,EMC-BAC-2,1.1
12,NCI-H2085,1.03
13,Calu-6,1.06
14,HCC-366,1.04
15,NCI-H1666,1.03
16,NCI-H596,0.883
17,NCI-H2087,0.621
18,H3255,0.846

row,Cell Line,relative viability
1,COR-L23,0.962
2,COR-L 105,0.744
3,IA-LM,0.802
4,LOU-NH91,0.485
5,ChaGo-K-1,0.81
6,NCI-H2405,0.999
7,HOP-62,0.728
8,HCC-44,0.946
9,LU99A,1.06
10,BEN,0.763
11,HARA,1.22
12,HCC-78,0.496
13,NCI-H322M,1.15
14,LCLC-97TM1,0.35
15,NCI-H2009,0.825
16,A-427,0.948
17,NCI-H1299,1.1

# Same assay, conditions: first compound 0.6325 µM
row,Cell Line,relative viability
1,NCI-H727,0.847
2,NCI-H1650,0.191
3,EBC-1,0.52
4,NCI-H1703,0.215
5,NCI-H1993,1.15
6,SW 1573,0.894
7,NCI-H838,0.746
8,LCLC-103H,1.07
9,NCI-H520,0.671
10,NCI-H2126,1.13
11,EMC-BAC-2,1.07
12,NCI-H2085,1
13,Calu-6,0.972
14,HCC-366,1.02
15,NCI-H1666,0.951
16,NCI-H596,1.96
17,NCI-H2087,0.649
18,H3255,0.791

row,Cell Line,relative viability
1,COR-L23,0.978
2,COR-L 105,0.703
3,IA-LM,0.814
4,LOU-NH91,0.511
5,ChaGo-K-1,1.04
6,NCI-H2405,0.961
7,HOP-62,0.339
8,HCC-44,0.875
9,LU99A,1.07
10,BEN,0.701
11,HARA,1.12
12,HCC-78,0.571
13,NCI-H322M,1.18
14,LCLC-97TM1,0.538
15,NCI-H2009,0.963
16,A-427,0.972
17,NCI-H1299,0.972

# Same assay, conditions: first compound 2 µM
row,Cell Line,relative viability
1,NCI-H727,1.04
2,NCI-H1650,0.195
3,EBC-1,0.589
4,NCI-H1703,0.344
5,NCI-H1993,1.21
6,SW 1573,1.02
7,NCI-H838,0.727
8,LCLC-103H,1.1
9,NCI-H520,0.789
10,NCI-H2126,1.14
11,EMC-BAC-2,1.1
12,NCI-H2085,1.07
13,Calu-6,1.04
14,HCC-366,1.01
15,NCI-H1666,0.906
16,NCI-H596,1.05
17,NCI-H2087,0.896
18,H3255,0.876

row,Cell Line,relative viability
1,COR-L23,0.737
2,COR-L 105,1.03
3,IA-LM,0.813
4,LOU-NH91,0.484
5,ChaGo-K-1,1.12
6,NCI-H2405,0.987
7,HOP-62,1.02
8,HCC-44,0.87
9,LU99A,1.1
10,BEN,0.576
11,HARA,1.25
12,HCC-78,0.505
13,NCI-H322M,1.14
14,LCLC-97TM1,0.539
15,NCI-H2009,1.08
16,A-427,0.984
17,NCI-H1299,1.04

# Compound: C1CSC2=C(C(=O)N1)SC3=C2C=C(C=C3)O [kb NB 142-70] + N=C(N)NC(=N)NCCc1ccccc1 [Phenformin] (partner 250 µM)
# Experiment: as above
# Details: first compound 0.1 µM
# Procedure, shortened: as §1
row,Cell Line,relative viability
1,NCI-H2342,0.615
2,NCI-H1623,0.599
3,NCI-H727,0.585
4,NCI-H1650,0.457
5,NCI-H1993,0.567
6,SW 1573,0.378
7,NCI-H838,0.561
8,LCLC-103H,0.352
9,NCI-H520,0.57
10,NCI-H2126,0.525
11,EMC-BAC-2,0.524
12,NCI-H2085,0.706
13,HCC-366,0.637
14,NCI-H1666,0.558
15,NCI-H596,0.888
16,LK-2,0.5
17,NCI-H2087,0.432
18,SK-MES-1,0.754
19,H3255,0.358
20,COR-L23,0.416
21,COR-L 105,0.428

row,Cell Line,relative viability
1,LOU-NH91,0.615
2,ChaGo-K-1,0.513
3,NCI-H2170,0.429
4,NCI-H2405,0.397
5,HOP-62,0.666
6,HCC-44,0.405
7,A549,0.129
8,NCI-H522,0.633
9,LU99A,0.789
10,BEN,0.25
11,HARA,0.486
12,SW 900,0.495
13,HCC-78,0.72
14,NCI-H322M,0.755
15,LCLC-97TM1,0.407
16,NCI-H2009,0.477
17,A-427,0.466
18,NCI-H1395,0.45
19,NCI-H1793,0.285
20,NCI-H1944,0.202
21,NCI-H358,0.279

# Same assay, conditions: first compound 1 µM
row,Cell Line,relative viability
1,NCI-H2342,0.619
2,NCI-H1623,0.617
3,NCI-H727,0.714
4,NCI-H1650,0.525
5,NCI-H1993,0.488
6,SW 1573,0.264
7,NCI-H838,0.575
8,LCLC-103H,0.317
9,NCI-H520,0.515
10,NCI-H2126,0.507
11,EMC-BAC-2,0.501
12,NCI-H2085,0.756
13,HCC-366,0.588
14,NCI-H1666,0.526
15,NCI-H596,0.77
16,LK-2,0.403
17,NCI-H2087,0.555
18,SK-MES-1,0.658
19,H3255,0.362
20,COR-L23,0.426
21,COR-L 105,0.534

row,Cell Line,relative viability
1,LOU-NH91,0.741
2,ChaGo-K-1,0.49
3,NCI-H2170,0.405
4,NCI-H2405,0.375
5,HOP-62,0.663
6,HCC-44,0.256
7,A549,0.193
8,NCI-H522,0.561
9,LU99A,0.666
10,BEN,0.263
11,HARA,0.473
12,SW 900,0.521
13,HCC-78,0.673
14,NCI-H322M,0.795
15,LCLC-97TM1,0.462
16,NCI-H2009,0.547
17,A-427,0.37
18,NCI-H1395,0.484
19,NCI-H1793,0.406
20,NCI-H1944,0.205
21,NCI-H358,0.187

# Same assay, conditions: first compound 3.162 µM
row,Cell Line,relative viability
1,NCI-H2342,0.502
2,NCI-H1623,0.591
3,NCI-H727,0.605
4,NCI-H1650,0.324
5,NCI-H1993,0.549
6,SW 1573,0.175
7,NCI-H838,0.571
8,LCLC-103H,0.318
9,NCI-H520,0.324
10,NCI-H2126,0.551
11,EMC-BAC-2,0.38
12,NCI-H2085,0.371
13,HCC-366,0.604
14,NCI-H1666,0.467
15,NCI-H596,0.822
16,LK-2,0.318
17,NCI-H2087,0.411
18,SK-MES-1,0.407
19,H3255,0.371
20,COR-L23,0.258
21,COR-L 105,0.486

row,Cell Line,relative viability
1,LOU-NH91,0.632
2,ChaGo-K-1,0.453
3,NCI-H2170,0.395
4,NCI-H2405,0.356
5,HOP-62,0.534
6,HCC-44,0.148
7,A549,0.166
8,NCI-H522,0.522
9,LU99A,0.722
10,BEN,0.239
11,HARA,0.344
12,SW 900,0.193
13,HCC-78,0.651
14,NCI-H322M,0.86
15,LCLC-97TM1,0.416
16,NCI-H2009,0.429
17,A-427,0.248
18,NCI-H1395,0.434
19,NCI-H1793,0.42
20,NCI-H1944,0.2
21,NCI-H358,0.0752

# From the supplement of paper PMC10307832
